# Experimental data taken from paper PMC8414802, “Hair Cell Generation in Cochlear Culture Models Mediated by Novel γ-Secretase Inhibitors” (Frontiers in Cell and Developmental Biology, 2021).
# Tested on: Atoh1-GFP positive hair cells and Sox2+ supporting cells in whole cochlea
# Test: Ex vivo whole cochlea culture, drug applied at the round window niche
# Type: cell-based, mouse
# Method: To culture the intact cochlea of P0–P1 mice, the entire otic capsule (cochlea and semicircular canals) was carefully dissected. Connective tissues and nerves were removed to clear the round window niche and the capsule was positioned with the round window facing up in a sterile 35 mm dish. A surgical sponge was employed to blot dry the interior of the round window niche, which was then filled with 2 μl of the formulated drug and applied with a small pipette tip. Following 2 h of drug treatment at 37°C with 5% CO2, the tissue was transferred to a 50 ml conical tube containing 10 ml medium (DMEM, 5%FBS, 5% horse serum and ampicillin) and the tube was sparged with 95% O2/5% CO2 for 5–10 min and incubated for 2 days at 37°C, rotating on a roller/rocker (SCILOGEX MX-T6-S Analog Tube Roller) at 15–17 rpm.
# For whole-mount immunohistochemistry, whole cochleae were fixed (4% PFA) ON at 4°C, then incubated in primary antibodies (72 h, rocking at 4°C), goat anti-GFP polyclonal Ab (AbCam, ab6673) and rabbit anti-Sox2 polyclonal IgG (GenTex, GTX101506) in 4% normal donkey serum. Following extended washes (over 24 h), cochlea were incubated for 24 h in secondary antibodies donkey anti-goat Alexa 488 (Thermo Fisher, A11055) and donkey anti-rabbit Alexa 647 (Thermo Fisher, A31573) and extensively washed. The intact OC were then microdissected from cochleae and mounted on a coverslip for confocal imaging. A LSM 510 Confocal Microscope (Zeiss) utilizing 63X Zeiss Plan-APOCHROMAT DIC oil, 1.4NA and Zen 2009 LSM imaging software was used to optically scan mid-apex regions of OCs. Cellular quantification and image analysis computation were performed with Imaris 8.2.1 software (Bitplane).
# To assess the permeability of the compounds across the round window membrane, a novel ex vivo model was devised to compare drug entry, after delivery to the exterior of the cochlear capsule, to resemble middle ear application. Specifically, CPD3 application was tested in organotypic culture of the entire otic capsule (Figure 4). CPD3, formulated at two different concentrations (1 and 7.2 mM) in 70% PEG400 or 10% POX338 (POX), was applied at the round window niche. Drug formulations were allowed to absorb briefly into the cochlea prior to the 48 h culture. […] For the POX338 formulation, we further characterized the number of Sox2+ supporting cells in the sensory epithelium. […] Also in this model, we observed a trend for new hair cells to be greater toward the apex than the base in agreement with the results obtained with the OC organotypic culture and indicated GSI exposure was throughout the entire length of the organ of Corti length during the culture period.
# FIGURE 4 Hair cell quantification in whole cochlea culture. (A) Hair cell counts from whole cochea culture with directly applied CPD3 in 70% PEG400 (1 mM or 7.2 mM). Atoh1-GFP positive hair cells in different organ of Corti regions (B, base; MB, mid-base; MA, mid-apex; A, apex) (n = 3 independent experiments). (B) Hair cell counts from whole cochea culture with directly applied CPD3 in 10% POX338 (1 mM;, or 7.2 mM). Atoh1-GFP positive hair cells in different organ of Corti regions (B, base; MB, mid-base; MA, mid-apex; A, apex; n = 3 independent experiments). (C) Immunostained inner ear sensory epithelia following whole cochlea culture with direct application of CPD3 (1 and 7.2 mM; Vehicle, 10% POX338). 3D projections of confocal stacks at mid-base region of organ of Corti, Atoh1-GFP (hair cells, green) and Sox2 (supporting cells, red). (D) Quantification of Atoh1-GFP-positive (green dots) and Sox2-positive cells (red dots) after direct application of CPD3 (1 or 7.2 mM), or vehicle formulated in 10% POX338. (*p < 0.05; ***p < 0.001, one-way ANOVA with multiple comparison; n = 12; 3 independent experiments; all regions-base to apex).
structure (smiles),measurement,setting,value
COc1ccc2c(c1)N1CCC(C)(C)C1=CC(=O)[C@H]2NC(=O)[C@H](C)NC(=O)CCC(F)(F)F [CPD3],Increase in Atoh1+ hair cells above vehicle-only,1 mM in 10% POX338,23.3%
same,Atoh1+ hair cells,"1 mM in 10% POX338, 48 h culture",72 ± 11 hair cells/100 μm
same,Change in Atoh1+ hair cells above vehicle-only,1 mM in 70% PEG400,no change
same,Atoh1+ hair cells,"1 mM in 70% PEG400, 48 h culture",54 ± 7 hair cells/100 μm
same,Increase in Atoh1+ hair cells above vehicle-only,7.2 mM in 10% POX338,54.4%
same,Atoh1+ hair cells,"7.2 mM in 10% POX338, 48 h culture",90 ± 20 hair cells/100 μm
same,Increase in Atoh1+ hair cells above vehicle-only,7.2 mM in 70% PEG400,60.1%
same,Atoh1+ hair cells,"7.2 mM in 70% PEG400, 48 h culture",87 ± 15 hair cells/100 μm
same,Supporting cell (Sox2+) counts,"10% POX338 formulation, p < 0.001",significant decrease
